What was measured:
Assay in all cases: Post-emergence efficacy, glasshouse spray test
Format in all cases: in vivo
[1] = tested on: Chenopodium album (CHEAL); conditions: Chenopodium album, post-emergence, 312 h, evaluated after 13 days, read-out: Control of weed species CHEAL after post-emergence application (100=total damage to plant; 0=no damage to plant); for pest or weed control at 1000 g/ha: application rate 1000 g/Ha; for pest or weed control at 500 g/ha: application rate 500 g/Ha
Protocol: (§1) Seeds of a variety of test species were sown in standard soil in pots. After cultivation for 14 days (post-emergence) under controlled conditions in a glasshouse (at 24/16° C., day/night; 14 hours light; 65% humidity), the plants were sprayed with an aqueous spray solution derived from the dissolution of the technical active ingredient formula (I) in a small amount of acetone and a special solvent and emulsifier mixture referred to as IF50 (11.12% Emulsogen EL360 TM+44.44% N-methylpyrrolidone+44.44% Dowanol DPM glycol ether), to create a 50 g/l solution which was then diluted to required concentration using 0.25% or 1% Empicol ESC70 (Sodium lauryl ether sulphate)+1% ammonium sulphate as diluent. The test plants were then grown in a glasshouse under controlled conditions (at 24/16° C., day/night; 14 hours light; 65% humidity) and watered twice daily. After 13 days the test was evaluated (100=total damage to plant; 0=no damage to plant).
(§2) Ipomoea hederacea (IPOHE), Euphorbia heterophylla (EPHHL), Chenopodium album (CHEAL), Amaranthus palmeri (AMAPA), Lolium perenne (LOLPE), Digitaria sanguinalis (DIGSA), Eleusine indica (ELEIN), Echinochloa crus-galli (ECHCG), Setaria faberi (SETFA)

[2] = tested on: Euphorbia heterophylla (EPHHL); conditions: Euphorbia heterophylla, post-emergence, 312 h, evaluated after 13 days, read-out: Control of weed species EPHHL after post-emergence application (100=total damage to plant; 0=no damage to plant); for pest or weed control at 1000 g/ha: application rate 1000 g/Ha; for pest or weed control at 500 g/ha: application rate 500 g/Ha
Protocol: as §1, §2

Eleusine indica (ELEIN) = conditions: Eleusine indica, post-emergence, 312 h, evaluated after 13 days, read-out: Control of weed species ELEIN after post-emergence application (100=total damage to plant; 0=no damage to plant); for pest or weed control at 1000 g/ha: application rate 1000 g/Ha; for pest or weed control at 500 g/ha: application rate 500 g/Ha
Protocol: as §1, §2

[3] = tested on: Ipomoea hederacea (IPOHE); conditions: Ipomoea hederacea, post-emergence, 312 h, evaluated after 13 days, read-out: Control of weed species IPOHE after post-emergence application (100=total damage to plant; 0=no damage to plant); for pest or weed control at 1000 g/ha: application rate 1000 g/Ha; for pest or weed control at 500 g/ha: application rate 500 g/Ha
Protocol: as §1, §2

[4] = tested on: Digitaria sanguinalis (DIGSA); conditions: Digitaria sanguinalis, post-emergence, 312 h, evaluated after 13 days, read-out: Control of weed species DIGSA after post-emergence application (100=total damage to plant; 0=no damage to plant); for pest or weed control at 1000 g/ha: application rate 1000 g/Ha; for pest or weed control at 500 g/ha: application rate 500 g/Ha
Protocol: as §1, §2

[5] = tested on: Echinochloa crus-galli (ECHCG); conditions: Echinochloa crus-galli, post-emergence, 312 h, evaluated after 13 days, read-out: Control of weed species ECHCG after post-emergence application (100=total damage to plant; 0=no damage to plant); for pest or weed control at 1000 g/ha: application rate 1000 g/Ha; for pest or weed control at 500 g/ha: application rate 500 g/Ha
Protocol: as §1, §2

Setaria faberi (SETFA) = conditions: Setaria faberi, post-emergence, 312 h, evaluated after 13 days, read-out: Control of weed species SETFA after post-emergence application (100=total damage to plant; 0=no damage to plant); for pest or weed control at 1000 g/ha: application rate 1000 g/Ha; for pest or weed control at 500 g/ha: application rate 500 g/Ha
Protocol: as §1, §2

Lolium perenne (LOLPE) = conditions: Lolium perenne, post-emergence, 312 h, evaluated after 13 days, read-out: Control of weed species LOLPE after post-emergence application (100=total damage to plant; 0=no damage to plant); for pest or weed control at 1000 g/ha: application rate 1000 g/Ha; for pest or weed control at 500 g/ha: application rate 500 g/Ha
Protocol: as §1, §2

[6] = tested on: Amaranthus palmeri (AMAPA); conditions: Amaranthus palmeri, post-emergence, 312 h; application rate 1000 g/Ha; evaluated after 13 days; read-out: Control of weed species AMAPA after post-emergence application (100=total damage to plant; 0=no damage to plant)
Protocol: as §1, §2

Structure (SMILES) | pest or weed control at 1000 g/ha [1] [%] | pest or weed control at 1000 g/ha [2] [%] | pest or weed control at 1000 g/ha (Eleusine indica (ELEIN)) [%] | pest or weed control at 1000 g/ha [3] [%] | pest or weed control at 1000 g/ha [4] [%] | pest or weed control at 1000 g/ha [5] [%] | pest or weed control at 1000 g/ha (Setaria faberi (SETFA)) [%] | pest or weed control at 1000 g/ha (Lolium perenne (LOLPE)) [%] | pest or weed control at 500 g/ha [1] [%] | pest or weed control at 500 g/ha [2] [%] | pest or weed control at 500 g/ha (Eleusine indica (ELEIN)) [%] | pest or weed control at 500 g/ha [3] [%] | pest or weed control at 500 g/ha [4] [%] | pest or weed control at 500 g/ha [5] [%] | pest or weed control at 500 g/ha (Setaria faberi (SETFA)) [%] | pest or weed control at 500 g/ha (Lolium perenne (LOLPE)) [%] | other results
O=S(=O)([O-])CC[n+]1ccc2cc(Br)ccc2n1 [Compound A34] | 20 | 40 | 30 | 20 | 40 | 40 | 20 | 10 |  |  |  |  |  |  |  |  | 
O=S(=O)(O)c1ccc(C[n+]2ccc3ccccc3n2)cc1 [Compound A92] | 0 | 50 | 30 | 40 | 20 | 30 | 10 | 10 |  |  |  |  |  |  |  |  | 
CC(=O)Nc1ccc2cc[n+](CCS(=O)(=O)[O-])nc2c1 [Compound A105] |  |  |  |  |  |  |  |  | 70 | 30 | 80 | 20 | 60 | 50 | 70 | 20 | 
CN(C)C(=O)c1ccc2cc[n+](CCS(=O)(=O)[O-])nc2c1 [Compound A106] |  |  |  |  |  |  |  |  | 80 | 30 | 100 | 20 | 70 | 80 | 100 | 30 | 
CN(C)C(=O)c1cccc2cc[n+](CCS(=O)(=O)[O-])nc12 [Compound A102, 2-[8-(dimethylcarbamoyl)cinnolin-2-ium-2-yl]ethanesulfonate] |  |  |  |  |  |  |  |  | 100 | 60 | 100 | 70 | 80 | 70 | 90 | 30 | 
CN(C)C(=O)c1ccc2n[n+](CCS(=O)(=O)[O-])ccc2c1 [Compound A101] |  |  |  |  |  |  |  |  | 60 | 70 | 80 | 40 | 70 | 60 | 70 | 20 | 
COC(=O)c1cccc(C[n+]2ccc3ccccc3n2)c1 [Compound A90] |  | 30 | 20 | 10 | 10 | 10 | 0 | 0 |  |  |  |  |  |  |  |  | pest or weed control at 1000 g/ha [6]: 20%
Cc1cccc2cc[n+](CCS(=O)(=O)[O-])nc12 [Compound A36] |  | 30 | 90 | 30 | 80 | 70 | 40 | 20 |  |  |  |  |  |  |  |  | 
CC(=O)Nc1ccc2n[n+](CCS(=O)(=O)[O-])ccc2c1 [Compound A104] |  |  |  |  |  |  |  |  |  |  |  |  |  |  |  |  | pest or weed control at 125 g/ha ([1]; application rate 125 g/Ha): 30%; pest or weed control at 125 g/ha ([2]; application rate 125 g/Ha): 50%; pest or weed control at 125 g/ha (Eleusine indica (ELEIN); application rate 125 g/Ha): 80%; pest or weed control at 125 g/ha ([3]; application rate 125 g/Ha): 10%; pest or weed control at 125 g/ha ([4]; application rate 125 g/Ha): 60%; pest or weed control at 125 g/ha ([5]; application rate 125 g/Ha): 60%; pest or weed control at 125 g/ha (Setaria faberi (SETFA); application rate 125 g/Ha): 70%; pest or weed control at 125 g/ha (Lolium perenne (LOLPE); application rate 125 g/Ha): 20%
Cc1c[n+](CCS(=O)(=O)[O-])nc2c(C)cccc12 [Compound A35] | 0 | 30 | 20 | 20 | 30 | 20 | 0 | 10 |  |  |  |  |  |  |  |  | 
Cc1ccc2n[n+](CCS(=O)(=O)[O-])cc(C)c2c1 [Compound A33] | 10 | 60 | 30 | 30 | 40 | 50 | 40 | 0 |  |  |  |  |  |  |  |  | 
O=C(O)c1cccc(C[n+]2ccc3ccccc3n2)c1 [Compound A91] | 20 | 40 | 20 | 10 | 20 | 40 | 20 | 10 |  |  |  |  |  |  |  |  | 
